Literature values as cited in patent US10653626B2, “Powder for oral suspension containing lamotrigine” (Shanghai Aucta Pharmaceuticals Co., Ltd., priority 2016, dated 2020).

Nc1nnc(-c2cccc(Cl)c2Cl)c(N)n1 [Lamotrigine, 6-(2,3-dichlorophenyl)-1,2,4-triazine-3,5-diamine]
Solubility in water: insoluble in water
